Source: the NIST ThermoML archive (doi:10.1016/j.jct.2015.10.002)

Experiment: mn = molality of the nth substance listed, in mol/kg
Settings: 101.3 kPa, Liquid; for viscosity: Capillary tube (Ostwald / Ubbelohde) method; for mass density: Vibrating tube method

OC[C@@H](O)[C@@H](O)[C@H](O)[C@@H](O)CO [D-sorbitol] + O
Settings	mass density, m1 = 0.2 [kg/m3]	mass density, m1 = 0.4 [kg/m3]	mass density, m1 = 0.6 [kg/m3]	mass density, m1 = 0.8 [kg/m3]	mass density, m1 = 1 [kg/m3]	viscosity, m1 = 0.2 [mPa·s]	viscosity, m1 = 0.4 [mPa·s]	viscosity, m1 = 0.6 [mPa·s]	viscosity, m1 = 0.8 [mPa·s]	viscosity, m1 = 1 [mPa·s]
293.15 K	1010.61	1022.43	1033.64	1044.32	1054.54	1.099	1.203	1.319	1.453	1.592
303.15 K	1007.87	1019.5	1030.53	1041.07	1051.08	0.87	0.944	1.034	1.122	1.233
313.15 K	1004.3	1015.77	1026.67	1037.06	1046.99	0.708	0.766	0.829	0.903	0.977
323.15 K	999.96	1011.33	1022.12	1032.4	1042.26	0.588	0.634	0.686	0.738	0.797
